Data published in PubChem BioAssay (NCI).
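Test compounds were applied to cells in 96-well plates for 48 hours at 5 doses. GI50 = concentration required for 50% inhibition of growth. The concentration for full growth arrest is given as TGI.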

Key:
Test in all cases: NCI anticancer screen, dose series, 48 h
NCI-H460 lung = system: NCI-H460 lung
KM12 colon = system: KM12 colon
PC-3 prostate = system: PC-3 prostate
MOLT-4 leukemia = system: MOLT-4 leukemia
OVCAR-8 ovarian = system: OVCAR-8 ovarian
SF-295 CNS = system: SF-295 CNS
HCT-15 colon = system: HCT-15 colon
COLO 205 colon = system: COLO 205 colon
HT29 colon = system: HT29 colon
HL-60(TB) leukemia = system: HL-60(TB) leukemia
MDA-MB-231 breast = system: MDA-MB-231 breast
HOP-92 NSCLC = system: HOP-92 NSCLC
A498 renal = system: A498 renal
A549 NSCLC = system: A549 NSCLC
HS 578T breast = system: HS 578T breast
MCF7 breast = system: MCF7 breast
SW-620 colon = system: SW-620 colon
HCC-2998 colon = system: HCC-2998 colon
TK-10 renal = system: TK-10 renal
M14 melanoma = system: M14 melanoma
K-562 leukemia = system: K-562 leukemia
SK-OV-3 ovarian = system: SK-OV-3 ovarian
T-47D breast = system: T-47D breast
SF-539 CNS = system: SF-539 CNS
HOP-62 NSCLC = system: HOP-62 NSCLC
OVCAR-3 ovarian = system: OVCAR-3 ovarian
SN12C renal = system: SN12C renal
NCI-H23 lung = system: NCI-H23 lung
EKVX NSCLC = system: EKVX NSCLC
SNB-75 CNS = system: SNB-75 CNS
ACHN renal = system: ACHN renal
CCRF-CEM leukemia = system: CCRF-CEM leukemia
CAKI-1 renal = system: CAKI-1 renal
DU-145 prostate = system: DU-145 prostate
NCI-H522 lung = system: NCI-H522 lung
IGROV1 ovarian = system: IGROV1 ovarian
NCI-H226 lung = system: NCI-H226 lung
UACC-257 melanoma = system: UACC-257 melanoma
SF-268 CNS = system: SF-268 CNS
OVCAR-4 ovarian = system: OVCAR-4 ovarian
UO-31 renal = system: UO-31 renal
SK-MEL-2 melanoma = system: SK-MEL-2 melanoma
SR leukemia = system: SR leukemia
SK-MEL-28 melanoma = system: SK-MEL-28 melanoma
MDA-MB-435 = system: MDA-MB-435
SK-MEL-5 melanoma = system: SK-MEL-5 melanoma
U251 CNS = system: U251 CNS
LOX IMVI melanoma = system: LOX IMVI melanoma
NCI/ADR-RES ovarian = system: NCI/ADR-RES ovarian
OVCAR-5 ovarian = system: OVCAR-5 ovarian
BT-549 breast = system: BT-549 breast
RXF 393 renal = system: RXF 393 renal
786-0 renal = system: 786-0 renal
HCT-116 colon = system: HCT-116 colon
RPMI-8226 leukemia = system: RPMI-8226 leukemia
SNB-19 CNS = system: SNB-19 CNS
UACC-62 melanoma = system: UACC-62 melanoma
MALME-3M melanoma = system: MALME-3M melanoma

Compound: COc1cc(C2CC(c3cccc(Nc4ccnc5cc(Cl)ccc45)c3)=NN2C=O)cc(OC)c1OC (centres undefined)
- GI50 (NCI-H460 lung): 436 nM
- TGI (NCI-H460 lung): > 40400 nM
- GI50 (KM12 colon): 502 nM
- TGI (KM12 colon): > 23400 nM
- GI50 (PC-3 prostate): 979 nM
- TGI (PC-3 prostate): 19200 nM
- GI50 (MOLT-4 leukemia): 595 nM
- TGI (MOLT-4 leukemia): 4440 nM
- GI50 (OVCAR-8 ovarian): 1640 nM
- TGI (OVCAR-8 ovarian): > 28300 nM
- GI50 (SF-295 CNS): 357 nM
- TGI (SF-295 CNS): 3610 nM
- GI50 (HCT-15 colon): 626 nM
- TGI (HCT-15 colon): > 100000 nM
- GI50 (COLO 205 colon): 635 nM
- TGI (COLO 205 colon): 7150 nM
- GI50 (HT29 colon): 364 nM
- TGI (HT29 colon): 1230 nM
- GI50 (HL-60(TB) leukemia): 243 nM
- TGI (HL-60(TB) leukemia): 530 nM
- GI50 (MDA-MB-231 breast): 1360 nM
- TGI (MDA-MB-231 breast): 13700 nM
- GI50 (HOP-92 NSCLC): 2750 nM
- TGI (HOP-92 NSCLC): 85400 nM
- GI50 (A498 renal): 273 nM
- TGI (A498 renal): 1630 nM
- GI50 (A549 NSCLC): 571 nM
- TGI (A549 NSCLC): 10000 nM
- GI50 (HS 578T breast): 545 nM
- TGI (HS 578T breast): 9360 nM
- GI50 (MCF7 breast): 354 nM
- TGI (MCF7 breast): 10200 nM
- GI50 (SW-620 colon): 401 nM
- GI50 (HCC-2998 colon): 2310 nM
- TGI (HCC-2998 colon): 24400 nM
- GI50 (TK-10 renal): 1120 nM
- TGI (TK-10 renal): 4450 nM
- GI50 (M14 melanoma): 319 nM
- TGI (M14 melanoma): 2000 nM
- GI50 (K-562 leukemia): 435 nM
- TGI (K-562 leukemia): 12600 nM
- GI50 (SK-OV-3 ovarian): 1350 nM
- TGI (SK-OV-3 ovarian): 4140 nM
- GI50 (T-47D breast): 805 nM
- TGI (T-47D breast): 5170 nM
- GI50 (SF-539 CNS): 1020 nM
- TGI (SF-539 CNS): 3890 nM
- GI50 (HOP-62 NSCLC): 846 nM
- TGI (HOP-62 NSCLC): 8310 nM
- GI50 (OVCAR-3 ovarian): 408 nM
- TGI (OVCAR-3 ovarian): 1350 nM
- GI50 (SN12C renal): 1140 nM
- TGI (SN12C renal): 27200 nM
- GI50 (NCI-H23 lung): 1400 nM
- TGI (NCI-H23 lung): 21500 nM
- GI50 (EKVX NSCLC): 1300 nM
- TGI (EKVX NSCLC): 26100 nM
- GI50 (SNB-75 CNS): 310 nM
- TGI (SNB-75 CNS): 2300 nM
- GI50 (ACHN renal): 1270 nM
- TGI (ACHN renal): 5320 nM
- GI50 (CCRF-CEM leukemia): 462 nM
- GI50 (CAKI-1 renal): 563 nM
- TGI (CAKI-1 renal): 2470 nM
- GI50 (DU-145 prostate): 1970 nM
- TGI (DU-145 prostate): 11800 nM
- GI50 (NCI-H522 lung): 502 nM
- TGI (NCI-H522 lung): 6680 nM
- GI50 (IGROV1 ovarian): 2120 nM
- TGI (IGROV1 ovarian): > 43200 nM
- GI50 (NCI-H226 lung): 1980 nM
- TGI (NCI-H226 lung): 6150 nM
- GI50 (UACC-257 melanoma): 743 nM
- TGI (UACC-257 melanoma): 5600 nM
- GI50 (SF-268 CNS): 1490 nM
- TGI (SF-268 CNS): > 34800 nM
- GI50 (OVCAR-4 ovarian): 1130 nM
- TGI (OVCAR-4 ovarian): 6210 nM
- GI50 (UO-31 renal): 1320 nM
- TGI (UO-31 renal): 4690 nM
- GI50 (SK-MEL-2 melanoma): 504 nM
- TGI (SK-MEL-2 melanoma): 3080 nM
- GI50 (SR leukemia): 318 nM
- TGI (SR leukemia): 1700 nM
- GI50 (SK-MEL-28 melanoma): 961 nM
- TGI (SK-MEL-28 melanoma): 4260 nM
- GI50 (MDA-MB-435): 157 nM
- TGI (MDA-MB-435): 466 nM
- GI50 (SK-MEL-5 melanoma): 454 nM
- TGI (SK-MEL-5 melanoma): 2340 nM
- GI50 (U251 CNS): 393 nM
- TGI (U251 CNS): 3460 nM
- GI50 (LOX IMVI melanoma): 791 nM
- TGI (LOX IMVI melanoma): 7150 nM
- GI50 (NCI/ADR-RES ovarian): 1300 nM
- TGI (NCI/ADR-RES ovarian): 6300 nM
- GI50 (OVCAR-5 ovarian): 3500 nM
- TGI (OVCAR-5 ovarian): 20300 nM
- GI50 (BT-549 breast): 419 nM
- TGI (BT-549 breast): 1700 nM
- GI50 (RXF 393 renal): 1380 nM
- TGI (RXF 393 renal): 5290 nM
- GI50 (786-0 renal): 1120 nM
- TGI (786-0 renal): 5160 nM
- GI50 (HCT-116 colon): 381 nM
- TGI (HCT-116 colon): 1640 nM
- GI50 (RPMI-8226 leukemia): 3720 nM
- TGI (RPMI-8226 leukemia): > 23000 nM
- GI50 (SNB-19 CNS): 2520 nM
- TGI (SNB-19 CNS): > 100000 nM
- GI50 (UACC-62 melanoma): 621 nM
- TGI (UACC-62 melanoma): 2660 nM
- GI50 (MALME-3M melanoma): 825 nM
- TGI (MALME-3M melanoma): 5140 nM
